Read-outs that look alike come from different tables or passages of the source.
Columns and labels:
MC38 tumor cells = assay: MC-38 syngeneic colon cancer model, tumor growth and tolerability; assay type: in vivo
Method: The inventors undertook a combination study of APL-101 and an anti-PD-1 antibody to evaluate the safety and efficacy of the combination. In the MC-38 colon cancer model in syngeneic mice, four groups, five animals per group received either vehicle (water at 20 mg/kg orally, once a day), APL-101 (10 mg/kg orally, once a day), anti-PD-1 (10 mg/kg intraperitoneal injection, twice a week), or APL-101 plus anti-PD-1. In the vehicle group as well as the APL-101 group, animals were dosed daily on Days 1-15 whereas in the single agent anti-PD-1 group, doses were administered on Days 1, 4, 8, 11, and 15. In the combination arm of APL-101 and anti-PD-1, APL-101 was administered on Days 5-15 (4-day delay) while the anti-PD-1 was dosed on Days 1, 4, 8, 11, and 15.
(§1) Animals: female C57BL/6 mice, age 6-8 weeks and of body weight 18-20 g, were provided by Shanghai Lingchang Bio-Technology Co. Ltd.
APL-101 were provided by CBT pharmaceuticals (now Apollomics, Inc.). Anti-PD 1 antibodies were supplied by BioXcell.
Cell culture: The MC38 tumor cells were thawed and maintained in vitro as a monolayer culture in DMEM medium supplemented with 10% heat inactivated fetal bovine serum at 37° C. in an atmosphere of 5% CO2 in air. […] The cells growing in an exponential growth phase were harvested and counted for tumor inoculation. […]
Group assignment: Before grouping and treatment, all animals were weighed and the tumor volumes were measured using a caliper. […]
(§2) Observation and data collection: After tumor cells inoculation, the animals were checked daily for morbidity and mortality. During routine monitoring, the animals were checked for any effects of tumor growth and treatments on normal behavior such as mobility, visual estimation of food and water consumption, body weight gain/loss (body weights were measured twice per week after randomization), eye/hair matting and any other abnormal effect. Death and observed clinical signs were recorded in the comment of datasheet for each animal in detail. […] (Tumor weight was measured at the end of study). […]

H22 tumor cells = assay: H22 syngeneic liver cancer model, tumor growth and tolerability; assay type: in vivo
Method: The inventors undertook a combination study of APL-101 and an anti-PD-1 antibody to evaluate the safety and efficacy of the combination. In the H22 liver cancer model in syngeneic mice, four groups, ten animals per group received either vehicle (PVP K30 at 20 mg/kg orally, once a day for three weeks), APL-101 (10 mg/kg orally, once a day for three weeks), anti-PD-1 (10 mg/kg intraperitoneal injection, twice a week for three weeks), or APL-101 plus anti-PD-1.
as §1
APL-101 were provided by CBT pharmaceuticals (now Apollomics, Inc.). […]
Cell culture: The H22 tumor cell line were maintained in vitro in RPMI-1640 medium supplemented with 10% fetal bovine serum at 37° C. in an atmosphere of 5% CO2 in air. […] The cells growing in an exponential growth phase were harvested and counted for tumor inoculation. […]
as §2, with “on” for “on normal”, “mobility,” for “mobility, visual estimation of”, “weekly” for “per week”, “abnormalities.” for “abnormal effect. Death and observed clinical signs were recorded in the comment of datasheet for each animal in detail.”, “were” for “was”

RENCA tumor cells = assay: Syngeneic Renca kidney cancer model, tumor growth and tolerability; assay type: in vivo
From the text: The inventors undertook a combination study of APL-101 and an anti-PD-1 antibody to evaluate the safety and efficacy of the combination. […]
as §1
APL-101 were provided by CBT pharmaceuticals (Apollomics, Inc.). Anti-PD 1 antibodies were supplied by BioXcell. PVP K30 were supplied by Fluka Analytical.
Cell culture: The Renca tumor cell line was maintained in vitro in DMEM medium supplemented with 10% fetal bovine serum at 37° C. in an atmosphere of 5% CO2 in air. The tumor cells were routinely subcultured twice weekly. The cells growing in an exponential growth phase were harvested and counted for tumor inoculation. […]
Observation and data collection: After tumor cells inoculation, the animals were checked daily for morbidity and mortality. During routine monitoring, the animals were checked for any effects of tumor growth and treatments on behavior such as mobility, food and water consumption, body weight gain/loss (body weights were measured twice weekly after randomization), eye/hair matting and any other abnormalities. Mortality and observed clinical signs were recorded for individual animals in detail. […] (Tumor weight were measured at the end of study). […]

[1] = 150 mg every 12 hours; 300 mg total daily dose; cited from earlier work
[2] = 3 mg/kg IV on Day 1 and Day 15 of 28-day cycle; relapsed and refractory solid tumor subjects; cited from earlier work

Compound | Mean percent tumor growth (MC38 tumor cells; MC 38 syngeneic model, APL-101 10 mg/kg qd, anti-PD-1 Ab 10 mg/kg biw) [%] | body weight of treated mice (MC38 tumor cells; MC-38 model, FIG. 1C, alone or in combination) | mean percent tumor growth inhibition (MC38 tumor cells; MC-38 syngeneic mice, APL-101 PO 10 mg/kg QD, anti-PD-1 IP 10 mg/kg BIW, combination x2 weeks, single agents x3 weeks) [%] | Mean percent tumor growth (H22 tumor cells; H22 syngeneic liver cancer model, APL-101 10 mg/kg QD x3 weeks, anti-PD-1 IP 10 mg/kg BIW x3 weeks) [%] | body weight of treated mice (H22 tumor cells; H-22 model, FIG. 2C, alone or in combination) | body weight of treated mice (RENCA tumor cells; RENCA model, FIG. 3C, alone or in combination) | Mean percent tumor growth (RENCA tumor cells; syngeneic Renca kidney cancer model, APL-101 10 mg/kg QD x3 weeks, anti-PD-1 IP 10 mg/kg BIW x3 weeks) [%] | dose deemed safe by Safety Review Committee [1] | dose deemed safe by Safety Review Committee [2]
Cn1cc2cc(C(F)(F)c3nnc4ccc(-c5cnn(C6CC6)c5)nn34)c(F)cc2n1 [APL-101] | 35.61 | did not affect the body weight | 33.6 | 108.73 | did not affect the body weight | did not affect the body weight | 77 | safe | 
APL-501: anti-PD-1 antibody, previously named CBT-501, see WO2016/014688 |  |  |  |  |  |  |  |  | safe
